Here are results for two molecules from the NIST ThermoML archive (doi:10.1021/acs.jced.9b00780).

A short description of data set [1]: refractive index (Na D-line) (dimensionless); wn = mass fraction of the nth substance listed. Conditions: 298.15 K, 100 kPa, Liquid, Standard Abbe refractometry.
Data set [2] is described as follows: wn = mass fraction of the nth substance listed. The note with it: 298.15 K, 100 kPa, Liquid, Vibrating tube method.

Numbers after ± are expanded uncertainties.

The refractive index is a measure of how strongly the sample bends light. By mass density is commonly meant mass per unit of volume. Take `O=B[O-].[Na+]` [sodium metaborate] + O: the refractive index in data set [1] (w1 = 0.2259) amounted to 1.3872 ± 0.0033. Besides, the mass density in data set [2] (w1 = 0.2259) was 1267.8 ± 6.2 kg/m3.

As to `O=BOB([O-])OB([O-])OB=O.[Na+].[Na+]` [sodium tetraborate] + O, in data set [1] (w1 = 0.0308), the refractive index amounted to 1.339 ± 0.003. In data set [2] (w1 = 0.0308), the mass density was 1025.65 ± 0.63 kg/m3.
